Here are results for 24 compounds from PMC11013424, “Evaluation of the Lipophilicity of Angularly Condensed Diquino- and Quinonaphthothiazines as Potential Candidates for New Drugs” (Molecules, 2024).

Series [1] can be described thus: RP-TLC determination of lipophilicity (RM0, logPTLC).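 On all read-outs here: silica gel 60 RP-18 F254S plates, TRIS buffer of ionic strength 0.2 M, detection under UV at 254 nm, RF averaged over three or more runs, C in % v/v.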 To be noted: for RM0: RP-18 plate, acetone/TRIS buffer pH 7.4, extrapolated to zero acetone; for b (slope) / -b: slope of RM = RM0 + b·C; for b (slope): acetone/TRIS buffer pH 7.4; for LogPTLC: from RM0 by calibration logPTLC = 1.2838 RM0 + 0.2138; for -b: standards I–V.
Protocol: RP-TLC was carried out on a silica gel 60 RP-18 F254S 10 cm × 10 cm RP-TLC plate (Merck, Darmstad, Germany). The mobile phase was acetone and an aqueous TRIS (tris(hydroxymethyl)-aminomethane) buffer pH = 7.4 (ionic strength 0.2 M) to meet physiological conditions. […] Angularly condensed diquino- and quinonaphthothiazinethiazines (1–21) and the standards I–V were dissolved in ethanol (2.0 mg/mL). […] Before developing the plates, the chromatographic chambers were saturated with the mobile phase for 0.5 h. After developing the plates and drying in a stream of air, the chromatograms were observed under UV light at λ = 254 nm. At least, three chromatograms were developed for each soluble–solvent combination, and the RF values were averaged. […] The RM0 values were obtained by extrapolation to a zero acetone concentration using the equation RM = RM0 + bC, where C is the concentration (%, v/v) of acetone in the mobile phase.
The next series has as its system alpha-glucosidase. Also noted: method as in doi:10.1016/j.molstruc.2023.136856. To be noted: cited from earlier work.
Details of series [2]: method as in doi:10.1016/j.molstruc.2023.136856. The conditions noted are these: cited from earlier work.
Another series relates to alpha-amylase. Details: method as in doi:10.1016/j.molstruc.2023.136856. The conditions noted are these: cited from earlier work.
On the set-up of series [3]: method as in doi:10.1016/j.molstruc.2023.136856. To be noted: cited from earlier work. This is another data set of the same source.
On the set-up of series [4]: method as in doi:10.1016/j.molstruc.2023.136856. The conditions noted are these: cited from earlier work. The source holds these as a separate data set.
On the set-up of series [5]: method as in doi:10.1016/j.molstruc.2023.135700, PMID 30981160, doi:10.1016/j.molstruc.2015.06.046, PMID 25750501, doi:10.1016/j.molstruc.2023.136856. The conditions noted are these: cited from earlier work.
Series [6] deals with IFNβ expression and IFNβ-dependent downstream genes and proteins. Also noted: method as in doi:10.1016/j.molstruc.2023.135700, PMID 30981160, doi:10.1016/j.molstruc.2015.06.046, PMID 25750501, doi:10.1016/j.molstruc.2023.136856. The conditions noted are these: cited from earlier work.

Turning to `CN1c2ccc3ccccc3c2Sc2cc3ccccc3nc21` [Compound 15], in series [1], the RM0 was 4.49 and the “b (slope)” value is −0.0527.

On to `c1ccc2nc3c(cc2c1)Sc1c(ccc2ncccc12)N3` [Compound 5], for which, in series [1], the RM0 is on record as 3.72 and the “b (slope)” value is recorded as −0.0459.

Turning to `CN1c2cnc3ccccc3c2Sc2cc3ccccc3nc21` [Compound 2], in series [1], the RM0 is reported as 4.14 and the “b (slope)” value is −0.0503.

On to `CN1c2nc3ccccc3cc2Sc2ccc3ncccc3c21` [Compound 10], for which, in series [1], the RM0 is reported as 4.37 and the “b (slope)” value is on record as −0.0540.

For `c1ccc2nc3c(cc2c1)Sc1c(cnc2ccccc12)N3` [Compound 1, 7H-diquino[3,2-b;3′,4′-e]thiazine], the alpha-glucosidase activity inhibition result with alpha-glucosidase is recorded as “inhibited”. In series [1], the RM0 is 3.15 and the “b (slope)” value is −0.0383. The “free radical scavenging effect” value in series [2] is on record as “strong”. In the series on alpha-amylase, the alpha-amylase activity inhibition entry is “inhibited”. Also, in series [3], the ion chelating effect entry is “strong”. Also, in series [4], the lipid peroxidation effect result is on record as “strong”.

Consider `CC(=O)Nc1ccccc1` [Standard I, acetanilide, reference compound], for which, in series [1], the RM0 was 0.78, the LogPTLC amounted to 1.21 and the “-b” value is 0.0162.

In the case of `C=CCN1c2nc3ccccc3cc2Sc2ccc3ccccc3c21` [Compound 20, 14-allylquinonaphthothiazine], in series [1], the RM0 is 4.34 and the “b (slope)” value is −0.0548.

`c1ccc2nc3c(cc2c1)Sc1c(ccc2ccccc12)N3` [Compound 14]: in series [1], the RM0 is recorded as 4.24, the LogPTLC is 5.69 and the “b (slope)” value is −0.0573.

On to `c1ccc2nc3c(cc2c1)Sc1ccc2ncccc2c1N3` [Compound 9], for which the alpha-glucosidase activity inhibition entry in the series with alpha-glucosidase is reported as “inhibited”. Moreover, in series [1], the RM0 is 3.69 and the “b (slope)” value is listed as −0.0498. Moreover, the “free radical scavenging effect” value in series [2] is on record as “strong”. In addition, the alpha-amylase activity inhibition result in the series on alpha-amylase was “inhibited”. The ion chelating effect result in series [3] is “strong”. In series [4], the lipid peroxidation effect result is on record as “strong”.

`c1ccc2nc3c(cc2c1)Sc1ccc2cccnc2c1N3` [Compound 11]: the alpha-glucosidase activity inhibition result in the series with alpha-glucosidase is reported as “inhibited”. Also, in series [1], the RM0 is given as 3.48, the LogPTLC is recorded as 4.72 and the “b (slope)” value is −0.0462. Besides, the “free radical scavenging effect” value in series [2] was “strong”. Also, the alpha-amylase activity inhibition entry with alpha-amylase was “inhibited”. Also, in series [3], the ion chelating effect entry is on record as “strong”. For the same compound, the lipid peroxidation effect entry in series [4] was “strong”.

On to `C#CCN1c2ccc3ccccc3c2Sc2cc3ccccc3nc21` [Compound 17], for which, in series [1], the RM0 is listed as 4.29, the LogPTLC was 5.76 and the “b (slope)” value was −0.0529.

Consider `C=CCN1c2cnc3ccccc3c2Sc2cc3ccccc3nc21` [Compound 3], for which, in series [1], the RM0 is 4.30 and the “b (slope)” value is recorded as −0.058.

Consider `Clc1ccc(C(c2ccc(Cl)cc2)C(Cl)(Cl)Cl)cc1` [Standard V, p,p’-DDT, reference compound], for which, in series [1], the RM0 is reported as 4.69, the LogPTLC was determined as 6.24 and the “-b” value amounted to 0.0564.

As to “6-chloro-ethylureidoethyldiquinothiazine”, the “activity in in vivo models” value in series [5] is “suppressive and anti-inflammatory activities”. The “inhibition of IFNβ expression and IFNβ-dependent downstream genes and proteins” value in series [6] is “inhibitory activity”.

For the compound `CN1c2ccc3ncccc3c2Sc2cc3ccccc3nc21` [Compound 6], in series [1], the RM0 was 4.24 and the “b (slope)” value is listed as −0.0582.

As for `C=CCN1c2ccc3ncccc3c2Sc2cc3ccccc3nc21` [Compound 7], in series [1], the RM0 was 4.46 and the “b (slope)” value is recorded as −0.0534.

For `c1ccc2nc3c(cc2c1)Sc1ccc2ccccc2c1N3` [Compound 18], in series [1], the RM0 is on record as 3.81 and the “b (slope)” value is reported as −0.0484.

Consider `C#CCN1c2ccc3ncccc3c2Sc2cc3ccccc3nc21` [Compound 8], for which, in series [1], the RM0 is 3.96, the LogPTLC was found to be 5.34 and the “b (slope)” value is −0.0539.

For `C#CCN1c2cnc3ccccc3c2Sc2cc3ccccc3nc21` [Compound 4], in series [1], the RM0 is 3.35 and the “b (slope)” value is on record as −0.0383.

Regarding `O=C(O)c1ccccc1` [Standard II, benzoic acid, reference compound], in series [1], the RM0 is listed as 1.16 and the “-b” value is on record as 0.0247.

Consider `CN1c2nc3ccccc3cc2Sc2ccc3ccccc3c21` [Compound 19], for which, in series [1], the RM0 was 4.18, the LogPTLC was 5.58 and the “b (slope)” value was −0.0538.

As for `CN1c2nc3ccccc3cc2Sc2ccc3cccnc3c21` [Compound 12], in series [1], the RM0 is recorded as 4.21 and the “b (slope)” value was −0.0576.

For `C#CCN1c2nc3ccccc3cc2Sc2ccc3ccccc3c21` [Compound 21], in series [1], the RM0 was 4.09 and the “b (slope)” value is −0.0507.

With `C=CCN1c2nc3ccccc3cc2Sc2ccc3cccnc3c21` [Compound 13], the “b (slope)” value in series [1] was −0.0478.
